The values below are quoted from earlier work in patent US9095514B2, “Pharmaceutical composition” (SUN PHARMA ADVANCED RESEARCH COMPANY LTD., priority 2009, dated 2015).

With `CC(C)C[C@H](NC(=O)[C@H](Cc1ccccc1)NC(=O)c1cnccn1)B(O)O` [Bortezomib, N-(2-pyrazine) carbonyl-L-phenylalanine-L-leucine boronic acid], the “stability in certain solvents” value (Sara Wu et al J. Pharm. Sci 89) is reported as “quite unstable”. For the same compound, the “solubility of solid bortezomib” value (at 1 mg/ml in 0.9% w/v of sodium chloride) is “not soluble”. Moreover, where the note is “stored at 2° C.-8° C., U.S. Pat. No. 6,713,446”, the “not stable for longer than” value is given as 3-6 months. In addition, the “stable for (HPLC purity>97%)” value (stored at −2° C. to −20° C., U.S. Pat. No. 6,713,446) is “more than 2 years”.
